Assay results taken from article PMC10879502, “Linking ATP and allosteric sites to achieve superadditive binding with bivalent EGFR kinase inhibitors” (Communications Chemistry, 2024).

Assays:
[1] = system: H1975 cells (L858R/T790M); assay: MTT antiproliferative activity assay; format: cell-based, human
Procedure: (§1) Cells were dosed with inhibitors to a final DMSO 0.5% in triplicate for 37 °C for 72 h. Cellular inhibition of growth was assessed by MTT viability assay according to the manufactures protocol (OZ Biosciences). […] Ba/F3 cells were all cultured in RPMI1640 media with 10% fetal bovine serum and 1% penicillin and streptomycin. The Ba/F3 cell lines were tested negative for Mycoplasma using Mycoplasma Plus PCR Primer Set (Agilent) and were passaged and/or used for no longer than 4 weeks for all experiments. Assay reagents were purchased from MilliporeSigma (Cat# R7017-5G). Ba/F3 cells were plated and treated with increasing concentrations of inhibitors in triplicate for 72 h. Compounds were dispensed using the Tecan D300e Digital Dispenser. […] All experiments were repeated at least 3 times and values were reported as an average with standard deviation.

[2] = system: HCC827 cells (exon 19 del); assay: MTT antiproliferative activity assay; format: cell-based, human
Procedure: as §1

[3] = target: T1, ABL1(T315I)-phosphorylated (Homo sapiens, UniProt P00519, T315I); assay: KINOMEscan; format: binding; conditions: 1 μM
T1 construct: purchased Eurofins DiscoverX Corporation

ABL2 = target: T2, ABL2 (Homo sapiens, UniProt P42684); assay: KINOMEscan; format: binding; conditions: 1 μM
T2 construct: purchased Eurofins DiscoverX Corporation

AMPK-alpha2 = AMPK-alpha2 (Homo sapiens, UniProt P54646); assay: KINOMEscan; format: binding; conditions: 1 μM
ARK5 = ARK5 (Homo sapiens, UniProt O60285); assay: KINOMEscan; format: binding; conditions: 1 μM
CAMK1G = target: T3, CAMK1G (Homo sapiens, UniProt Q96NX5); assay: KINOMEscan; format: binding; conditions: 1 μM
T3 construct: purchased Eurofins DiscoverX Corporation (KINOMEscan)

CAMKK2 = target: T4, CAMKK2 (Homo sapiens, UniProt Q96RR4); assay: KINOMEscan; format: binding; conditions: 1 μM
T4 construct: purchased Eurofins DiscoverX Corporation (KINOMEscan)

CDK5 = CDK5 (Homo sapiens, UniProt Q00535); assay: KINOMEscan; format: binding; conditions: 1 μM
CDKL3 = CDKL3 (Homo sapiens, UniProt Q8IVW4); assay: KINOMEscan; format: binding; conditions: 1 μM
CIT = CIT (Homo sapiens, UniProt O14578); assay: KINOMEscan; format: binding; conditions: 1 μM
CSK = CSK (Homo sapiens, UniProt P41240); assay: KINOMEscan; format: binding; conditions: 1 μM
CSNK2A1 = target: T5, CSNK2A1 (Homo sapiens, UniProt P68400); assay: KINOMEscan; format: binding; conditions: 1 μM
T5 construct: purchased Eurofins DiscoverX Corporation

EPHA2 = EPHA2 (Homo sapiens, UniProt P29317); assay: KINOMEscan; format: binding; conditions: 1 μM
FLT3(D835H) = FLT3(D835H) (Homo sapiens, UniProt P36888, D835H); assay: KINOMEscan; format: binding; conditions: 1 μM
FLT3(ITD+D835V) = assay: KINOMEscan; format: binding; conditions: 1 μM
GRK1 = target: T6, GRK1 (Homo sapiens, UniProt Q15835); assay: KINOMEscan; format: binding; conditions: 1 μM
T6 construct: purchased Eurofins DiscoverX Corporation

ICK = target: T7, ICK (Homo sapiens, UniProt Q9UPZ9); assay: KINOMEscan; format: binding; conditions: 1 μM
T7 construct: purchased Eurofins DiscoverX (KINOMEscan)

LIMK2 = target: T8, LIMK2 (Homo sapiens, UniProt P53671); assay: KINOMEscan; format: binding; conditions: 1 μM
T8 construct: purchased Eurofins DiscoverX Corporation

LZK = target: T9, LZK (Homo sapiens, UniProt O43283); assay: KINOMEscan; format: binding; conditions: 1 μM
T9 construct: purchased Eurofins DiscoverX Corporation

MAPKAPK5 = target: T10, MAPKAPK5 (Homo sapiens, UniProt Q8IW41); assay: KINOMEscan; format: binding; conditions: 1 μM
T10 construct: purchased Eurofins DiscoverX Corporation

MEK6 = target: T11, MEK6 (Homo sapiens, UniProt P52564); assay: KINOMEscan; format: binding; conditions: 1 μM
T11 construct: purchased Eurofins DiscoverX Corporation

MET(Y1235D) = target: T12, MET(Y1235D) (Homo sapiens, UniProt P08581, Y1235D); assay: KINOMEscan; format: binding; conditions: 1 μM
T12 construct: purchased Eurofins DiscoverX Corporation

MKK7 = target: T13, MKK7 (Homo sapiens, UniProt O14733); assay: KINOMEscan; format: binding; conditions: 1 μM
T13 construct: purchased Eurofins DiscoverX Corporation

MLCK = target: T14, MLCK (Homo sapiens, UniProt Q32MK0); assay: KINOMEscan; format: binding; conditions: 1 μM
T14 construct: purchased Eurofins DiscoverX Corporation

MYLK2 = target: T15, MYLK2 (Homo sapiens, UniProt Q9H1R3); assay: KINOMEscan; format: binding; conditions: 1 μM
T15 construct: purchased Eurofins DiscoverX Corporation

MYO3A = target: T16, MYO3A (Homo sapiens, UniProt Q8NEV4); assay: KINOMEscan; format: binding; conditions: 1 μM
T16 construct: purchased Eurofins DiscoverX Corporation

NIK = NIK (Homo sapiens, UniProt Q99558); assay: KINOMEscan; format: binding; conditions: 1 μM
p38-beta = p38-beta (Homo sapiens, UniProt Q15759); assay: KINOMEscan; format: binding; conditions: 1 μM
PHKG1 = PHKG1 (Homo sapiens, UniProt Q16816); assay: KINOMEscan; format: binding; conditions: 1 μM
PIK3CA = PIK3CA (Homo sapiens, UniProt P42336); assay: KINOMEscan; format: binding; conditions: 1 μM
PIK3CA(I800L) = PIK3CA(I800L) (Homo sapiens, UniProt P42336, I800L); assay: KINOMEscan; format: binding; conditions: 1 μM
PIP5K1A = PIP5K1A (Homo sapiens, UniProt Q99755); assay: KINOMEscan; format: binding; conditions: 1 μM
PRKCQ = PRKCQ (Homo sapiens, UniProt Q04759); assay: KINOMEscan; format: binding; conditions: 1 μM
RIPK2 = RIPK2 (Homo sapiens, UniProt O43353); assay: KINOMEscan; format: binding; conditions: 1 μM
[4] = target: RPS6KA5(Kin.Dom.2-C-terminal) (Homo sapiens, UniProt O75582); assay: KINOMEscan; format: binding; conditions: 1 μM
SIK2 = SIK2 (Homo sapiens, UniProt Q9H0K1); assay: KINOMEscan; format: binding; conditions: 1 μM
TBK1 = target: T17, TBK1 (Homo sapiens, UniProt Q9UHD2); assay: KINOMEscan; format: binding; conditions: 1 μM
T17 construct: purchased Eurofins DiscoverX Corporation
T17 sequence (Q9UHD2 whole entry): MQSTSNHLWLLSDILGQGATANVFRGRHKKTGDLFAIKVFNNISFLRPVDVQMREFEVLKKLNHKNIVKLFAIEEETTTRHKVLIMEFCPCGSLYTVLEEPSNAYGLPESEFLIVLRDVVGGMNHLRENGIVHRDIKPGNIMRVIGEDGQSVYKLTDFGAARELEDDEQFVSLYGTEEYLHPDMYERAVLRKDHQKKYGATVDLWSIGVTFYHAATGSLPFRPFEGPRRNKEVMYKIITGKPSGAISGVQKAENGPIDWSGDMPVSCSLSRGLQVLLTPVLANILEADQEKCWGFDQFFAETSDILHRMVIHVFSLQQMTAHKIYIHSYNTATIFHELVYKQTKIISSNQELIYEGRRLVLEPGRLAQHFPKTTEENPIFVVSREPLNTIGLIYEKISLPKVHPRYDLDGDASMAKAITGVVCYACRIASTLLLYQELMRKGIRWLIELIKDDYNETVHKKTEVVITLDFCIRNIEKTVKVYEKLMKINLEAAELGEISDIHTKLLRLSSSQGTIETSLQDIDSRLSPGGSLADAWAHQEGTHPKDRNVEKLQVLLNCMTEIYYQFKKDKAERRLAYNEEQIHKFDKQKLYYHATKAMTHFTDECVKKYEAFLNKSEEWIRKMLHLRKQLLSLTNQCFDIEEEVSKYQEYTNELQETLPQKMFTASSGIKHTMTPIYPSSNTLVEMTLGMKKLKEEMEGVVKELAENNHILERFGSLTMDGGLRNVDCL

T6 sequence (Q15835 whole entry): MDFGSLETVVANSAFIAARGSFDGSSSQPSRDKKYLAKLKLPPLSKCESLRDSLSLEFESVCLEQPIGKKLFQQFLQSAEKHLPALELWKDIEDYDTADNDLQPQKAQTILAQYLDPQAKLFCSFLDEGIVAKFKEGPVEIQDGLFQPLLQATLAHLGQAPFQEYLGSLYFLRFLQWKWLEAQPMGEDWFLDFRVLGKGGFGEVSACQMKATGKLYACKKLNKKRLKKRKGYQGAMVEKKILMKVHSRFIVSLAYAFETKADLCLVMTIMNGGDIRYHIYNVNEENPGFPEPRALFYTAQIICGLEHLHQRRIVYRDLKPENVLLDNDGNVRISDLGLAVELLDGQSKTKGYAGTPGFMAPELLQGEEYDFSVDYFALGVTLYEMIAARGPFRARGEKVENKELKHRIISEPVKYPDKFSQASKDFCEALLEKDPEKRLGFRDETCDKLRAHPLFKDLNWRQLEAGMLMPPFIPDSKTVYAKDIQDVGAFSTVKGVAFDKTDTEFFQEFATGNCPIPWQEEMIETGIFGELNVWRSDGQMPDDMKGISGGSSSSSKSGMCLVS
T4 sequence (Q96RR4 whole entry): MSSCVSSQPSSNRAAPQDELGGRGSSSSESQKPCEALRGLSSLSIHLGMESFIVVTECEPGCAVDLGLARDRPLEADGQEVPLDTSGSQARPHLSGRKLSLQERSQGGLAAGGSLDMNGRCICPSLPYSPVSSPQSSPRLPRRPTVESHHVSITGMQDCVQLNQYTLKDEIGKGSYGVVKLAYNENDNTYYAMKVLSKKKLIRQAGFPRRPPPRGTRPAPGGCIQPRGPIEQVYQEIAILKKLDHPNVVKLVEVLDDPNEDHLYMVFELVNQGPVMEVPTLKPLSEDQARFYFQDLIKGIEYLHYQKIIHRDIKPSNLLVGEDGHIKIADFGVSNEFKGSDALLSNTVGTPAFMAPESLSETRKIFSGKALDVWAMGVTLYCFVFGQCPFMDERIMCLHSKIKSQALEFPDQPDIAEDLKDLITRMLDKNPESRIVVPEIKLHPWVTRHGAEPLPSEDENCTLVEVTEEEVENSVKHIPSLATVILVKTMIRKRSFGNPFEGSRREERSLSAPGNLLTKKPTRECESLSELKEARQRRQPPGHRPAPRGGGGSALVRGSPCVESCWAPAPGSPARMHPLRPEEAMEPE
Chain of RIPK2 (O43353 whole entry): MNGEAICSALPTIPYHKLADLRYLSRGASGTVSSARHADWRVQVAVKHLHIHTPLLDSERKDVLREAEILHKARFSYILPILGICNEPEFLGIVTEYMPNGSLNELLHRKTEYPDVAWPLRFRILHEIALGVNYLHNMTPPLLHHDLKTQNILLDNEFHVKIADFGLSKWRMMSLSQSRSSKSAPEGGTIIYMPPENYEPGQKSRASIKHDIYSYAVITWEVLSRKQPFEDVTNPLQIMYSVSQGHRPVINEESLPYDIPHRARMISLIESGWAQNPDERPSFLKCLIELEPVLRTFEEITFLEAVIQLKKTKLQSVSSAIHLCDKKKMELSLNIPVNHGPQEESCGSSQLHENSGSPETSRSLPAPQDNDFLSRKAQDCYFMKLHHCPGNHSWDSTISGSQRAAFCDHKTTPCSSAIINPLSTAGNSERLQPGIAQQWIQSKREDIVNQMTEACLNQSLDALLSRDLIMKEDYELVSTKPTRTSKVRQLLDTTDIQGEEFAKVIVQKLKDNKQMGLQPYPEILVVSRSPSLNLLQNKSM
T16 sequence (Q8NEV4 whole entry): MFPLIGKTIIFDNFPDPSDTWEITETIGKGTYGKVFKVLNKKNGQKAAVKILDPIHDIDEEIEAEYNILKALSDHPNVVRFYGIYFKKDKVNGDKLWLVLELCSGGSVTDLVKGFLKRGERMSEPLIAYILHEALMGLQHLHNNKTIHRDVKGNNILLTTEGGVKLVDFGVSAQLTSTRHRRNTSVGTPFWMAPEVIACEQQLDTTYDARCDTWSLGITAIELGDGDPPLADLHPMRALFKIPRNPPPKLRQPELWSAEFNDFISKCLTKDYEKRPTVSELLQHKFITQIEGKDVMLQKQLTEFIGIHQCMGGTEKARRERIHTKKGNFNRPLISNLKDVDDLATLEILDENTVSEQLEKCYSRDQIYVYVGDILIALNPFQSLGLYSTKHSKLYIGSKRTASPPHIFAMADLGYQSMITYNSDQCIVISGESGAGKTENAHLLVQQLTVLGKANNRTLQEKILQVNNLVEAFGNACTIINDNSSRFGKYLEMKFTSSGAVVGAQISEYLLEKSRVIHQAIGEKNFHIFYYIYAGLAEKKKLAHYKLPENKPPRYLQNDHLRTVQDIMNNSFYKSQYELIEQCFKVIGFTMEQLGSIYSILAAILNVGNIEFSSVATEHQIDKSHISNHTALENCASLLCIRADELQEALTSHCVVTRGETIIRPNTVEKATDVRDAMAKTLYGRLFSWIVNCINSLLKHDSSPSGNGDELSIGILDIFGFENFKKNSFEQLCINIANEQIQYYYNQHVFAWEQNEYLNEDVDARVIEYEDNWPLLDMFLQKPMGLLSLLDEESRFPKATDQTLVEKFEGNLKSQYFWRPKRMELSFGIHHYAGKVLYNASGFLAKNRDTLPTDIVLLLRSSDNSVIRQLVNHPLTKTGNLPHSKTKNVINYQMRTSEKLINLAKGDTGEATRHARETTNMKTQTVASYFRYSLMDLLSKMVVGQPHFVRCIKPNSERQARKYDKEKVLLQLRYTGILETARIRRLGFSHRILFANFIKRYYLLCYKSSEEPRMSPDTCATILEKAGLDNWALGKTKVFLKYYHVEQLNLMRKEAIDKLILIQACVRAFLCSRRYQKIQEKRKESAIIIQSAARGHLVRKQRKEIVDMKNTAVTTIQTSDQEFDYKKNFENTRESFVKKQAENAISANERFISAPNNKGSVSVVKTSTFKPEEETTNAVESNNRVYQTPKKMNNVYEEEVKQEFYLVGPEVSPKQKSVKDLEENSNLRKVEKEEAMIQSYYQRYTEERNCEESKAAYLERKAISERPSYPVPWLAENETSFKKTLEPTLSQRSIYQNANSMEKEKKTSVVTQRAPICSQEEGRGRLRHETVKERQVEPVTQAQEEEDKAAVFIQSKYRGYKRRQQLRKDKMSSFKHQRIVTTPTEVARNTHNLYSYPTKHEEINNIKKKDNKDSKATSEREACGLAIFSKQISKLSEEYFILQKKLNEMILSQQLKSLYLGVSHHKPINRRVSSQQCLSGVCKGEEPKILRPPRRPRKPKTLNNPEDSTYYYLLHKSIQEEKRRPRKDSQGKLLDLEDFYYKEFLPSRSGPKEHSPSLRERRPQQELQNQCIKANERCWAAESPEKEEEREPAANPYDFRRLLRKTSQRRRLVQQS
T13 sequence (O14733 whole entry): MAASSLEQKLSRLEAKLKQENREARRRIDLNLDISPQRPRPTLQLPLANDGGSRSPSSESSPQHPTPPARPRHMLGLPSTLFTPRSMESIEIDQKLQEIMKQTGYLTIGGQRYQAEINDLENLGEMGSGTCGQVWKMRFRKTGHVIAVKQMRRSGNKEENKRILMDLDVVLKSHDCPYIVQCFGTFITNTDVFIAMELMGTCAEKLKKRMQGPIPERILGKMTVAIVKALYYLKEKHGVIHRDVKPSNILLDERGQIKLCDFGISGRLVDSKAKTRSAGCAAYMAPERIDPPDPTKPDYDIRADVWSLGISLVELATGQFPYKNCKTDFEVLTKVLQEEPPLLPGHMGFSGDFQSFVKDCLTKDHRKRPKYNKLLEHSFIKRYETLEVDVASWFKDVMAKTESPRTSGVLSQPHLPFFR
Chain of CSK (P41240 whole entry): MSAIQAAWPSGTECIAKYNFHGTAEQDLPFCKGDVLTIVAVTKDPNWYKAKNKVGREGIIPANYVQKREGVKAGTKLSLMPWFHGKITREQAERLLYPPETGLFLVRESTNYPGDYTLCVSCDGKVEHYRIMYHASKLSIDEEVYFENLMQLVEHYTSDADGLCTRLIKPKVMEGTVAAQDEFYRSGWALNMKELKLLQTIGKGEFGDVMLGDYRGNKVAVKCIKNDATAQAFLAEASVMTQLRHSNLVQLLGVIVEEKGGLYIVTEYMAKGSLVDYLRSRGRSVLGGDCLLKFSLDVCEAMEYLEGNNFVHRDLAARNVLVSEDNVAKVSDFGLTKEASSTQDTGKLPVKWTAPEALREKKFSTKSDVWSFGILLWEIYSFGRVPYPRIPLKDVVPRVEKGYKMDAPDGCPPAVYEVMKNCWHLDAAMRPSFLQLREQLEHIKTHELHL

**Q.** With `C=CC(=O)Nc1ccc(OC)c(Nc2cc(-c3[nH]c(CC)nc3-c3cccc(NC(=O)c4cccc5c4NC(=O)c4ccccc4N5)c3)ccn2)c1` [Compound 4] as the compound, how does the “less potent than AZD9291” value ([1]; H1975) read?
**A.** The value was ~ 60 fold.

**Q.** What about the antiproliferative active concentration ([1]; H1975, text) of the same compound?
**A.** Its antiproliferative active concentration is 100 to 500 nM.

**Q.** What about the “less potent than AZD9291” value ([2]; HCC827) of the same compound?
**A.** The value was ~ 60 fold.

**Q.** What about the antiproliferative active concentration ([2]; HCC827, text) of the same compound?
**A.** The antiproliferative active concentration was 100 to 500 nM.

**Q.** What about the POC [3] of the same compound?
**A.** The POC was 100% of control.

**Q.** What about the POC (ABL2) of the same compound?
**A.** Its POC is 92% of control.

**Q.** And the POC (AMPK-alpha2)?
**A.** The POC was 56% of control.

**Q.** What about the POC (ARK5) of the same compound?
**A.** Its POC is 100% of control.

**Q.** And the POC (CAMK1G)?
**A.** Its POC is 100% of control.

**Q.** What about the POC (CAMKK2) of the same compound?
**A.** Its POC is 95% of control.

**Q.** And the POC (CDK5)?
**A.** The POC was 100% of control.

**Q.** What about the POC (CDKL3) of the same compound?
**A.** Its POC is 100% of control.

**Q.** And the POC (CIT)?
**A.** Its POC is 6.3% of control.

**Q.** What about the POC (CSK) of the same compound?
**A.** Its POC is 14% of control.

**Q.** And the POC (CSNK2A1)?
**A.** The POC was 100% of control.

**Q.** What about the POC (EPHA2) of the same compound?
**A.** Its POC is 100% of control.

**Q.** And the POC (FLT3(D835H))?
**A.** The POC was 92% of control.

**Q.** What about the POC (FLT3(ITD+D835V)) of the same compound?
**A.** The POC was 100% of control.

**Q.** What about the POC (GRK1) of the same compound?
**A.** The POC was 94% of control.

**Q.** And the POC (ICK)?
**A.** The POC was 100% of control.

**Q.** What about the POC (LIMK2) of the same compound?
**A.** The POC was 93% of control.

**Q.** And the POC (LZK)?
**A.** Its POC is 90% of control.

**Q.** And the POC (MAPKAPK5)?
**A.** Its POC is 100% of control.

**Q.** What about the POC (MEK6) of the same compound?
**A.** The POC was 73% of control.

**Q.** And the POC (MET(Y1235D))?
**A.** Its POC is 97% of control.

**Q.** What about the POC (MKK7) of the same compound?
**A.** The POC was 31% of control.

**Q.** And the POC (MLCK)?
**A.** Its POC is 86% of control.

**Q.** And the POC (MYLK2)?
**A.** Its POC is 84% of control.

**Q.** What about the POC (MYO3A) of the same compound?
**A.** Its POC is 14% of control.

**Q.** And the POC (NIK)?
**A.** The POC was 100% of control.

**Q.** And the POC (p38-beta)?
**A.** Its POC is 59% of control.

**Q.** And the POC (PHKG1)?
**A.** Its POC is 96% of control.

**Q.** And the POC (PIK3CA)?
**A.** Its POC is 70% of control.

**Q.** And the POC (PIK3CA(I800L))?
**A.** The POC was 100% of control.

**Q.** And the POC (PIP5K1A)?
**A.** The POC was 75% of control.

**Q.** What about the POC (PRKCQ) of the same compound?
**A.** Its POC is 18% of control.

**Q.** What about the POC (RIPK2) of the same compound?
**A.** Its POC is 62% of control.

**Q.** What about the POC [4] of the same compound?
**A.** The POC was 100% of control.

**Q.** And the POC (SIK2)?
**A.** The POC was 100% of control.

**Q.** What about the POC (TBK1) of the same compound?
**A.** Its POC is 95% of control.
